On the set-up of data set [1]: method as in PMID 33547615. As to conditions: rats, Fer at doses up to 40 mg/kg; cited from earlier work.
For data set [2] the following is noted: rat, Fer 1 mg/kg i.v.; cited from earlier work.
Data set [3] can be described thus: Intravenous administration of Fer-Me to rats (bloodstream and CSF pharmacokinetics). The class given is in vivo, rat. On the procedure:
Charles River laboratories, Calco, Italy) bloodstream and CSF. […] The sample size (4 rats/group) has been chosen based on our previous studies. The experimental procedures were approved by the Italian Ministry of Health and were performed in accordance with the European Communities Council Directive of September 2010 (2010/63/EU). According to the ARRIVE guidelines, all possible efforts were made to minimize animal pain and discomfort and to reduce the number of experimental subjects. Fer-Me solution (2.5 mg/mL final concentration, 15% v/v EtOH content) was prepared by first dissolving Fer-Me in EtOH and then adding this latter solution to a saline solution (0.9% NaCl). […] The aqueous phase was then subjected to a double extraction with 1 mL of H2O-saturated ethyl acetate. […] Data were acquired and processed through CLASS-VP Software; version 7.2.1 (Shimadzu Italia, Milan, Italy). The mobile phase was eluted under isocratic conditions (0.8 mL/min) and was constituted by a mixture of acetic acid in H2O (0.4% v/v) and MeOH, whose ratio was 40:60 (v/v). The UV-Vis detector was set at 320 nm for the detection of Fer-Me, its hydrolysis product Fer, and Caf-Me, which was utilized as an internal standard during blood sample extraction. […] The average recoveries were approximately 40% for Fer and 58% for Fer-Me. For this reason, the concentrations of these compounds were determined by their peak area ratio with respect to the internal standard (Caf-Me). […] Fer-Me in vivo half-life (t1/2) in the rats' bloodstream was determined using nonlinear regression (exponential decay) of concentration values quantified at appropriate time intervals after infusion, further validated by applying linear regression to the semi-logarithmic plot.

Setting [4] is: rat, after Fer-Me 10 mg/kg i.v. infusion.

The values below come from PMC11945475, “Nasal Administration of a Nanoemulsion Based on Methyl Ferulate and Eugenol Encapsulated in Chitosan Oleate: Uptake Studies in the Central Nervous System” (Pharmaceutics, 2025).

Consider `COc1cc(/C=C/C(=O)O)ccc1O` [Fer, ferulic acid], for which the side effects result in data set [1] is reported as “no side effects”. For the same compound, in data set [2], the “AUC in CSF” value was 3.3 ± 0.3 µg·min/mL, the “AUC in the bloodstream” value was 244 ± 13 µg·min/mL, the “Cmax in CSF” value was 80 ± 10 ng/mL and the “Tmax in CSF” value was 1 h. Moreover, the “Fer AUC as percentage of the Fer-Me AUC value” in data set [3] (rat bloodstream, after Fer-Me 10 mg/kg i.v.) came to 1.3%. Moreover, in data set [3] (rat, about 20 min after end of Fer-Me 10 mg/kg i.v. infusion), the “Fer concentration in the bloodstream” value is on record as 0.205 ± 0.050 µg/mL. In addition, in data set [3] (setting [4]), the “AUC of hydrolysis product Fer in the bloodstream” value turned out to be 8.4 ± 0.8 µg·min/mL and the “C0 of hydrolysis product Fer in the bloodstream” value was found to be 209 ± 1 ng/mL. Also, in data set [3] (rat, from the end of Fer-Me 10 mg/kg i.v. infusion), the “time within which Fer blood concentration decreased to zero” value is not above 60 min.
